Some test systems named below: A498 renal; RPMI-8226 leukemia; SNB-19 CNS; KM12 colon; UO-31 renal; RXF 393 renal; MCF7 breast; NCI/ADR-RES ovarian; NCI-H23 lung; SR leukemia.
Holding throughout (experiment): growth of human tumour cells (NCI), 48 h

Where “and” joins values, the source holds several entries; their conditions need not be identical. Identical values can stand only once.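 48-hour exposure; five concentrations; linearly interpolated endpoints. GI50: concentration for 50% inhibition of growth. TGI: concentration producing complete growth inhibition.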

As to `OCC#Cc1ccccc1C#Cc1ccc(C#Cc2ccccc2)cc1`, the GI50 is 15.6 µM in the assay on A498 renal; 6.05 µM in the assay on RPMI-8226 leukemia; 35.9 µM with SNB-19 CNS; 17.3 µM in the assay with KM12 colon; 28.6 µM in the assay on UO-31 renal; 26.2 µM with RXF 393 renal. The GI50 in the assay with MCF7 breast was 15.9 µM; with NCI/ADR-RES ovarian it was 17.6 µM; in the assay on NCI-H23 lung it was 18.2 µM; with SR leukemia, 11.5 µM. Moreover, the TGI in the assay with A498 renal is 30.8 µM; in the assay with RPMI-8226 leukemia it was 22.2 µM; with SNB-19 CNS, > 100 µM; in the assay with KM12 colon it was 34.3 µM; with UO-31 renal, > 100 µM; with RXF 393 renal it was 54.3 µM. The TGI in the assay with MCF7 breast was found to be 38.3 µM; in the assay on NCI/ADR-RES ovarian, 59.1 µM; in the assay on NCI-H23 lung, 37 µM; in the assay on SR leukemia, 44.8 µM.

For the compound `CC1(C)CC[C@]2(C(=O)O)CC[C@]3(C)C(=CC[C@@H]4[C@@]5(C)C/C(=C/c6ccco6)C(=O)C(C)(C)[C@@H]5CC[C@]43C)[C@@H]2C1`, the GI50 in the assay with A498 renal was 6.14 µM; in the assay with RPMI-8226 leukemia, 2.22 µM; in the assay on SNB-19 CNS, 4.02 µM; with KM12 colon, 2.77 µM; with UO-31 renal it was 2.39 µM; in the assay on RXF 393 renal it was 3.3 µM. The GI50 is 3.18 µM in the assay with MCF7 breast, 3.64 µM in the assay with NCI/ADR-RES ovarian, 3.13 µM with NCI-H23 lung and 4.04 µM with SR leukemia. For the same compound, the TGI in the assay on A498 renal is 45.6 µM; with RPMI-8226 leukemia, 10.7 µM; in the assay on SNB-19 CNS, > 100 µM; in the assay with KM12 colon, 11.6 µM; in the assay with UO-31 renal, 11.6 µM; in the assay with RXF 393 renal, 13.6 µM. Moreover, the TGI turned out to be 23.5 µM in the assay with MCF7 breast, 44.5 µM in the assay on NCI/ADR-RES ovarian, 17.6 µM in the assay on NCI-H23 lung and 52.4 µM in the assay with SR leukemia.

Turning to `COc1cc(/C=C2\C(=O)N(C)c3ccccc32)cc(OC)c1OC`, the GI50 in the assay on A498 renal was 33 µM; in the assay on RPMI-8226 leukemia, 9.67 µM; in the assay with SNB-19 CNS, 24.7 µM; in the assay on KM12 colon it was 11.2 µM; with UO-31 renal, 22.7 µM; in the assay on RXF 393 renal it was 0.206 µM. Further, the GI50 in the assay with MCF7 breast was 20.3 µM; in the assay with NCI/ADR-RES ovarian, 13.7 µM; with NCI-H23 lung, 21.2 µM; in the assay on SR leukemia, 6.26 µM. In addition, the TGI in the assay with A498 renal is > 100 µM; with RPMI-8226 leukemia, 49.1 µM; in the assay with SNB-19 CNS, > 100 µM; in the assay with KM12 colon it was 30.1 µM; in the assay with UO-31 renal, > 100 µM; in the assay with RXF 393 renal it was 5.75 µM. Further, the TGI in the assay with MCF7 breast is > 100 µM; with NCI/ADR-RES ovarian, 56.7 µM; in the assay with NCI-H23 lung it was 73.1 µM; in the assay on SR leukemia, 39.7 µM.

In the case of `NC(N)=N/N=C(/c1ccccc1)c1ccccc1F`, the GI50 with A498 renal is 2.28 µM; with RPMI-8226 leukemia it was 7.6 µM; in the assay with SNB-19 CNS it was 4.19 µM; with KM12 colon, 1.14 µM; with UO-31 renal, 4.48 µM; in the assay with RXF 393 renal it was 3 µM. Moreover, the GI50 with MCF7 breast was 0.327 µM; with NCI/ADR-RES ovarian, 2.69 µM; with NCI-H23 lung it was 5.02 µM; in the assay with SR leukemia, 0.809 µM. Besides, the TGI with A498 renal was 9.44 µM; in the assay with RPMI-8226 leukemia it was > 82.1 µM; in the assay on SNB-19 CNS, 31.3 µM; in the assay with KM12 colon, 12.9 µM; in the assay on UO-31 renal, 31.6 µM; with RXF 393 renal, 13.9 µM. In addition, the TGI with MCF7 breast is 13.3 µM; in the assay on NCI/ADR-RES ovarian, 9.74 µM; in the assay on NCI-H23 lung, 27.8 µM; with SR leukemia it was > 100 µM.

With `N/C(=N\C(N)=N\c1nc2ccccc2s1)c1cnccn1`, the GI50 in the assay with A498 renal was 1.45 µM; in the assay with RPMI-8226 leukemia, 3.2 µM; with SNB-19 CNS, 3.57 µM; in the assay on KM12 colon it was 3.37 µM; in the assay on UO-31 renal, 2.05 µM; in the assay on RXF 393 renal it was 1.93 µM. For the same compound, the GI50 in the assay with MCF7 breast was 3.16 µM; in the assay with NCI/ADR-RES ovarian, 4.28 µM; in the assay with NCI-H23 lung, 3 µM; in the assay with SR leukemia, 4.32 µM. For the same compound, the TGI was 3.89 µM in the assay with A498 renal; > 100 µM in the assay with RPMI-8226 leukemia; 41.6 µM in the assay on SNB-19 CNS; > 100 µM with KM12 colon; 4.87 µM with UO-31 renal; 3.96 µM in the assay with RXF 393 renal. The TGI in the assay on MCF7 breast is > 100 µM; with NCI/ADR-RES ovarian, > 100 µM; in the assay on NCI-H23 lung, 24.8 µM; in the assay on SR leukemia it was > 100 µM.

As to `CCSc1ncc(Br)c(Sc2nc(N)nc3nc[nH]c23)n1`, the GI50 in the assay on A498 renal is 10.1 µM; with RPMI-8226 leukemia, 3.87 µM; in the assay with SNB-19 CNS, > 100 µM; in the assay with KM12 colon, 7.05 µM; with UO-31 renal, 2.3 µM; in the assay with RXF 393 renal it was 5.37 µM. In addition, the GI50 was 3.04 µM with MCF7 breast, 3.48 µM in the assay on NCI/ADR-RES ovarian, 2.69 µM in the assay with NCI-H23 lung and 1.83 µM with SR leukemia. The TGI in the assay with A498 renal, in the assay on RPMI-8226 leukemia, with SNB-19 CNS, in the assay on KM12 colon, in the assay with UO-31 renal and in the assay on RXF 393 renal was > 100 µM in each case. Besides, the TGI with MCF7 breast, in the assay on NCI/ADR-RES ovarian, in the assay with NCI-H23 lung and in the assay with SR leukemia was > 100 µM each time.

`COc1ccc(/C=C\c2cc(OC)c(OC)c(OC)c2)c(NS(=O)(=O)c2ccc(C(C)(C)C)cc2)c1O`: the GI50 in the assay on A498 renal was 0.0241 µM; in the assay on RPMI-8226 leukemia it was 0.508 µM; in the assay with SNB-19 CNS, 0.56 µM; in the assay on KM12 colon it was 0.58 µM; with UO-31 renal, 0.982 µM; with RXF 393 renal it was 0.0379 µM. Further, the GI50 in the assay with MCF7 breast was 0.133 µM; with NCI/ADR-RES ovarian, 0.309 µM; in the assay on NCI-H23 lung, 0.497 µM; in the assay with SR leukemia it was 0.0453 µM. In addition, the TGI worked out at 0.169 µM in the assay on A498 renal; 25.6 µM in the assay with RPMI-8226 leukemia; 26.6 µM with SNB-19 CNS; 15.2 µM with KM12 colon; 21.6 µM in the assay with UO-31 renal; 16 µM in the assay with RXF 393 renal. In addition, the TGI in the assay on MCF7 breast was 15.7 µM; with NCI/ADR-RES ovarian, 19.6 µM; in the assay on NCI-H23 lung, 17.5 µM; with SR leukemia, > 100 µM.

For the compound `C=C(Cl)[C@@](Cl)(CBr)CC[C@@H](Br)C(C)(C)Cl`, the TGI was 5.57 µM and 1.93 µM with A498 renal; 1.48 µM and 0.473 µM in the assay on RPMI-8226 leukemia; 1.54 µM and 1.52 µM in the assay on SNB-19 CNS; 2.36 µM and 0.689 µM with KM12 colon; 1.85 µM and 2.01 µM in the assay on UO-31 renal; 2.37 µM and 0.488 µM in the assay with RXF 393 renal. Moreover, the TGI is 2.01 µM and 0.937 µM with MCF7 breast; 30.2 µM and 29.1 µM in the assay on NCI-H23 lung; > 100 µM and 79.4 µM with SR leukemia. The GI50 was 0.0688 µM in the assay with RPMI-8226 leukemia; 0.358 µM in the assay on SNB-19 CNS; 0.428 µM in the assay with UO-31 renal; 0.346 µM in the assay with RXF 393 renal; 0.432 µM in the assay on MCF7 breast; 3.05 µM in the assay with NCI/ADR-RES ovarian. For the same compound, the values for the GI50 in the assay on NCI-H23 lung and in the assay with SR leukemia were 13.4 µM and 23.1 µM, respectively.

On to `COc1ccc(/C=C/C(C)=N/OCC(=O)Nc2ccc(Cl)cc2)cc1`, for which the GI50 was 2.54 µM with A498 renal; 1.89 µM with RPMI-8226 leukemia; 3.16 µM in the assay on SNB-19 CNS; 2.24 µM with KM12 colon; 1.67 µM in the assay with UO-31 renal; 4.09 µM in the assay on RXF 393 renal. In addition, the GI50 in the assay with MCF7 breast is 2.3 µM; in the assay with NCI/ADR-RES ovarian it was 2.9 µM; in the assay on NCI-H23 lung, 2.54 µM; with SR leukemia, 2.24 µM. The TGI in the assay with A498 renal was 16.6 µM; in the assay with RPMI-8226 leukemia, 6.21 µM; in the assay with SNB-19 CNS, > 60.1 µM; in the assay on KM12 colon, 16.5 µM; in the assay with UO-31 renal, 22 µM; with RXF 393 renal, 21.4 µM. Also, the TGI with MCF7 breast is 18.8 µM; in the assay on NCI/ADR-RES ovarian it was 15.3 µM; with NCI-H23 lung, 10.2 µM; with SR leukemia, 10.6 µM.

On to `COc1cc(N(CCC#N)CCC#N)ccc1/C(N=Nc1ccc(C(=O)O)cc1)=N/NC(=O)c1cc(Br)ccc1O`, for which the GI50 in the assay on A498 renal was > 150 µg/mL; in the assay on RPMI-8226 leukemia, 127 µg/mL; in the assay with SNB-19 CNS it was > 150 µg/mL; in the assay with KM12 colon it was 50.3 µg/mL; in the assay with UO-31 renal, 107 µg/mL; in the assay on RXF 393 renal, 66.3 µg/mL. The GI50 is 57.3 µg/mL in the assay with MCF7 breast, 49.4 µg/mL in the assay on NCI/ADR-RES ovarian, > 150 µg/mL in the assay with NCI-H23 lung and 85.4 µg/mL with SR leukemia. In addition, the TGI in the assay on A498 renal, with RPMI-8226 leukemia, in the assay on SNB-19 CNS, in the assay on KM12 colon, in the assay with UO-31 renal and in the assay on RXF 393 renal was > 150 µg/mL throughout. For the same compound, the TGI in the assay on MCF7 breast, in the assay with NCI/ADR-RES ovarian, in the assay on NCI-H23 lung and with SR leukemia was > 150 µg/mL each time.

On to `Cc1ccc(C2=C(Cl)C(=O)C(c3ccc(C)cc3)=C(Cl)C2=O)cc1`, for which the TGI in the assay with A498 renal, with RPMI-8226 leukemia, in the assay on SNB-19 CNS, in the assay with KM12 colon, in the assay on UO-31 renal and in the assay with RXF 393 renal was > 100 µM throughout. Further, the TGI with MCF7 breast, in the assay on NCI/ADR-RES ovarian, with NCI-H23 lung and in the assay on SR leukemia was > 100 µM each time.

`CNCc1cccc2c1OCCOCCOCCC(C)S(=O)(=O)c1ccc(cc1)-c1cnc(N)c(n1)C(=O)N2` (configuration not stated): the GI50 was 0.139 µM in the assay on A498 renal; 2.05 µM with RPMI-8226 leukemia; 2.5 µM with SNB-19 CNS; 1.69 µM in the assay on KM12 colon; 0.623 µM in the assay with UO-31 renal; 0.175 µM in the assay on RXF 393 renal. For the same compound, the GI50 in the assay with MCF7 breast was 1.28 µM; with NCI/ADR-RES ovarian it was 5.31 µM; in the assay on NCI-H23 lung, 3.71 µM; in the assay with SR leukemia, 0.0861 µM. Further, the TGI was 2.14 µM in the assay with A498 renal; 5.12 µM with RPMI-8226 leukemia; 5.52 µM in the assay on SNB-19 CNS; 6.78 µM in the assay on KM12 colon; 2.09 µM in the assay with UO-31 renal; 1.6 µM in the assay with RXF 393 renal. For the same compound, the TGI in the assay on MCF7 breast stood at 14.6 µM; in the assay with NCI/ADR-RES ovarian it was 29.1 µM; in the assay with NCI-H23 lung, 18.9 µM; in the assay on SR leukemia, 4.71 µM.

These data come from PubChem BioAssay (NCI).
